According to patent publication US20240376091A1, “THIADIAZOLEAMIDE DERIVATIVES AND THEIR APPLICATIONS” (ZHEJIANG UNIVERSITY, priority 2021, published 2024):

Biological target: T1, AR (Homo sapiens, UniProt P10275, T878A)
T1 construct: into the androgen-dependent PCa cells (LNCaP); endogenous in cells; host or cells: LNCaP-ARR2PB-eGFP
T1 sequence (P10275 1-920 T878A): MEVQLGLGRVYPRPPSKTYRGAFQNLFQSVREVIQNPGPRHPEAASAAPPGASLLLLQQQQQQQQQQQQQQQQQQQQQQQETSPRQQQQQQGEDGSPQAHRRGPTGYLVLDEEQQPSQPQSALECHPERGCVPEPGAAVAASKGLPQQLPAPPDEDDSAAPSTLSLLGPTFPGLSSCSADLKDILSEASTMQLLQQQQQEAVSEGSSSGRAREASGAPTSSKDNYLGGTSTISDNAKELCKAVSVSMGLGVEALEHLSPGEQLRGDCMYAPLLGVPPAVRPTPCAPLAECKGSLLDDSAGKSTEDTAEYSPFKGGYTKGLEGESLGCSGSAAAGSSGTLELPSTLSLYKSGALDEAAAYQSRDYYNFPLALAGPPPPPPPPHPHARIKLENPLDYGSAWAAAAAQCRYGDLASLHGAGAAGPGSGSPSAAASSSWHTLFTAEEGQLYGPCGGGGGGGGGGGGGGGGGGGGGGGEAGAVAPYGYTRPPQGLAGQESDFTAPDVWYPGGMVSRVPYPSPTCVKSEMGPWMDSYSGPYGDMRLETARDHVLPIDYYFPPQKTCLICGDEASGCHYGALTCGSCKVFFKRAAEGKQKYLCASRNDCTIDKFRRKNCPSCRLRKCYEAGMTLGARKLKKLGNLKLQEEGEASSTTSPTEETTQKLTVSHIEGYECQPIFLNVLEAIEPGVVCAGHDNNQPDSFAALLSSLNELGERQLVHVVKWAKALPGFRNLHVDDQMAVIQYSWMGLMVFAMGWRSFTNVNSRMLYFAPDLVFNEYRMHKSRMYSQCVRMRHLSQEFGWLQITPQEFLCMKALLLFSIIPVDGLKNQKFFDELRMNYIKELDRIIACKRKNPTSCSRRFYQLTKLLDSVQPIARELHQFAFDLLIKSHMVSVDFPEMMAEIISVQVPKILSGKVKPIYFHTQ
Assay: AR transcriptional activity, LNCaP-ARR2PB-eGFP reporter cells
Type: cell-based
Settings: read-out: IC50 AR transcriptional activities
Excerpt: Detection principles: We conducted a stable transfection of promoter ARR2PB known for its strong AR responsiveness, into the androgen-dependent PCa cells (LNCaP). The expression of enhanced green fluorescent protein (eGFP) is depending on the degree of activation of AR. Therefore, LNCaP-ARR2PB-eGFP cell line could quantitatively determine the AR antagonistic activities of the compounds by evaluating the expression of eGFP.

Row | IC50 [µM] | SMILES
1 | 29.1 | Cc1sc(-c2cccc(C(F)(F)F)c2)cc1C(=O)Nc1nc(CC(C)(F)F)ns1 [Compound C-35, N-(3-(2,2-difluoropropyl)-1,2,4-thiadiazol-5-yl)-2-methyl-5-(3-(trifluoromethyl)phenyl)thiophene-3-carboxamide]
2 | 12.3 | Cc1sc(-c2cccc(C(F)(F)F)c2)cc1C(=O)Nc1nc(CCl)ns1 [Compound C-40, N-(3-(chloromethyl)-1,2,4-thiadiazol-5-yl)-2-methyl-5-(3-(trifluoromethyl)phenyl)thiophene-3-carboxamide]
3 | 12.5 | CCN(CC)Cc1nsc(NC(=O)c2cc(-c3cccc(OC)c3)sc2C)n1 [Compound C-50, N-(3-((diethylamino)methyl)-1,2,4-thiadiazol-5-yl)-5-(3-methoxyphenyl)-2-methyl-thiophene-3-carboxamide]
4 | 14.8 | Cc1sc(-c2cccc(OC(F)(F)F)c2)cc1C(=O)Nc1nc(CN2CCCC2)ns1 [Compound C-53, 2-Methyl-N-(3-(pyrrolidin-1-ylmethyl)-1,2,4-thiadiazol-5-yl)-5-(3-(trifluoromethoxy)phenyl)thiophene-3-carboxamide]
5 | 12.9 | Cc1sc(-c2cccc(OC(F)F)c2)cc1C(=O)Nc1nc(CN2CCCCC2)ns1 [Compound C-56, 5-(3-(Difluoromethoxy)phenyl)-2-methyl-N-(3-(piperidin-1-ylmethyl)-1,2,4-thiadiazol-5-yl)thiophene-3-carboxamide]
6 | 13.3 | Cc1sc(-c2cccc(OC(F)F)c2)cc1C(=O)Nc1nc(CN2CCOCC2)ns1 [Compound C-57, 5-(3-(Difluoromethoxy)phenyl)-2-methyl-N-(3-(morpholinomethyl)-1,2,4-thiadiazol-5-yl)thiophene-3-carboxamide]
7 | 9.79 | Cc1sc(-c2cccc(OC(F)F)c2)cc1C(=O)Nc1nc(CN2CCN(C)CC2)ns1 [Compound C-58, 5-(3-(Difluoromethoxy)phenyl)-2-methyl-N-(3-((4-methylpiperazin-1-yl)methyl)-1,2,4-thiadiazol-5-yl)thiophene-3-carboxamide]
8 | 25 | CC(=O)Cc1nsc(NC(=O)c2csc(-c3cccc(C(F)(F)F)c3)c2)n1 [Compound D-1, N-(3-(2-oxopropyl)-1,2,4-thiadiazol-5-yl)-5-(3-(trifluoromethyl)phenyl)thiophene-3-carboxamide]
9 | 32.6 | CC(=O)Cc1nsc(NC(=O)c2csc(-c3cccc(C#N)c3)c2)n1 [Compound D-2, 5-(3-Cyanophenyl)-N-(3-(2-oxopropyl)-1,2,4-thiadiazol-5-yl)thiophene-3-carboxamide]
10 | 13.6 | COc1cccc(-c2cc(C(=O)Nc3nc(CC(C)=O)ns3)cs2)c1 [Compound D-3, 5-(3-Methoxyphenyl)-N-(3-(2-oxopropyl)-1,2,4-thiadiazol-5-yl)thiophene-3-carboxamide]
11 | 41.5 | CC(=O)Cc1nsc(NC(=O)c2csc(-c3cccc(OC(F)(F)F)c3)c2)n1 [Compound D-4, N-(3-(2-oxopropyl)-1,2,4-thiadiazol-5-yl)-5-(3-(trifluoromethoxy)phenyl)thiophene-3-carboxamide]
12 | 40 | CC(=O)Cc1nsc(NC(=O)c2csc(-c3cccc(OC(F)F)c3)c2)n1 [Compound D-5, 5-(3-(Difluoromethoxy)phenyl)-N-(3-(2-oxopropyl)-1,2,4-thiadiazol-5-yl)thiophene-3-carboxamide]
13 | 13 | CC(Cc1nsc(NC(=O)c2csc(-c3cccc(C#N)c3)c2)n1)N1CCCC1 [Compound D-12, 5-(3-Cyanophenyl)-N-(3-(2-(pyrrolidin-1-yl)propyl)-1,2,4-thiadiazol-5-yl)thiophene-3-carboxamide]
14 | 37.2 | COc1cccc(-c2cc(C(=O)Nc3nc(CC(C)N4CCCCC4)ns3)cs2)c1 [Compound D-14, 5-(3-Methoxyphenyl)-N-(3-(2-(piperidin-1-yl)propyl)-1,2,4-thiadiazol-5-yl)thiophene-3-carboxamide]
15 | 24.2 | CC(Cc1nsc(NC(=O)c2csc(-c3cccc(OC(F)(F)F)c3)c2)n1)N1CCOCC1 [Compound D-16, N-(3-(2-morpholinopropyl)-1,2,4-thiadiazol-5-yl)-5-(3-(trifluoromethoxy)phenyl)thiophene-3-carboxamide]
16 | 19.2 | CC(Cc1nsc(NC(=O)c2csc(-c3cccc(OC(F)F)c3)c2)n1)N1CCN(C)CC1 [Compound D-19, 5-(3-(Difluoromethoxy)phenyl)-N-(3-(2-(4-methylpiperazin-1-yl)propyl)-1,2,4-thiadiazol-5-yl)thiophene-3-carboxamide]
17 | 18.1 | CC(O)Cc1nsc(NC(=O)c2csc(-c3cccc(C(F)(F)F)c3)c2)n1 [Compound D-20, N-(3-(2-hydroxypropyl)-1,2,4-thiadiazol-5-yl)-5-(3-(trifluoromethyl)phenyl)thiophene-3-carboxamide]
18 | 33 | CC(O)(Cc1nsc(NC(=O)c2csc(-c3cccc(C(F)(F)F)c3)c2)n1)C(F)(F)F [Compound D-25, N-(3-(3,3,3-trifluoro-2-hydroxy-2-methylpropyl)-1,2,4-thiadiazol-5-yl)-5-(3-(trifluoro-methyl)phenyl)thiophene-3-carboxamide]
19 | 34.8 | CC(Cc1nsc(NC(=O)c2csc(-c3cccc(C(F)(F)F)c3)c2)n1)=C(F)F [Compound D-30, N-(3-(3,3-difluoro-2-methylallyl)-1,2,4-thiadiazol-5-yl)-5-(3-(trifluoromethyl)phenyl)thiophene-3-carboxamide]
20 | 49.5 | CC(F)(F)Cc1nsc(NC(=O)c2csc(-c3cccc(C(F)(F)F)c3)c2)n1 [Compound D-35, N-(3-(2,2-difluoropropyl)-1,2,4-thiadiazol-5-yl)-5-(3-(trifluoromethyl)phenyl)thiophene-3-carboxamide]
21 | 21.5 | O=C(Nc1nc(CCl)ns1)c1csc(-c2cccc(C(F)(F)F)c2)c1 [Compound D-40, N-(3-(chloromethyl)-1,2,4-thiadiazol-5-yl)-5-(3-(trifluoromethyl)phenyl)thiophene-3-carboxamide]
22 | 25.3 | CN(C)Cc1nsc(NC(=O)c2csc(-c3cccc(C#N)c3)c2)n1 [Compound D-47, 5-(3-Cyanophenyl)-N-(3-((dimethylamino)methyl)-1,2,4-thiadiazol-5-yl)thiophene-3-carboxamide]
23 | 15 | CCN(CC)Cc1nsc(NC(=O)c2csc(-c3cccc(OC)c3)c2)n1 [Compound D-50, N-(3-((diethylamino)methyl)-1,2,4-thiadiazol-5-yl)-5-(3-methoxyphenyl)thiophene-3-carboxamide]
24 | 27.3 | O=C(Nc1nc(CN2CCCC2)ns1)c1csc(-c2cccc(OC(F)(F)F)c2)c1 [Compound D-53, N-(3-(pyrrolidin-1-ylmethyl)-1,2,4-thiadiazol-5-yl)-5-(3-(trifluoromethoxy)phenyl)thiophene-3-carboxamide]
25 | 42.1 | O=C(Nc1nc(CN2CCCCC2)ns1)c1csc(-c2cccc(OC(F)F)c2)c1 [Compound D-56, 5-(3-(Difluoromethoxy)phenyl)-N-(3-(piperidin-1-ylmethyl)-1,2,4-thiadiazol-5-yl)thiophene-3-carboxamide]
26 | 15 | O=C(Nc1nc(CN2CCOCC2)ns1)c1csc(-c2cccc(OC(F)F)c2)c1 [Compound D-57, 5-(3-(Difluoromethoxy)phenyl)-N-(3-(morpholinomethyl)-1,2,4-thiadiazol-5-yl)thiophene-3-carboxamide]
27 | 23.7 | CN1CCN(Cc2nsc(NC(=O)c3csc(-c4cccc(OC(F)F)c4)c3)n2)CC1 [Compound D-58, 5-(3-(Difluoromethoxy)phenyl)-N-(3-((4-methylpiperazin-1-yl)methyl)-1,2,4-thiadiazol-5-yl)thiophene-3-carboxamide]
28 | 1.06 | CC(=O)Cc1nsc(NC(=O)c2cc(-c3cccc(C(F)(F)F)c3)oc2C(F)(F)F)n1 [Compound E-1, N-(3-(2-oxopropyl)-1,2,4-thiadiazol-5-yl)-2-(trifluoromethyl)-5-(3-(trifluoro-methyl)phenyl)furan-3-carboxamide]

Row | SMILES | IC50 [µM]
29 | CC(Cc1nsc(NC(=O)c2csc(-c3cccc(C(F)(F)F)c3)c2)n1)N(C)C [Compound D-6, N-(3-(2-(dimethylamino)propyl)-1,2,4-thiadiazol-5-yl)-5-(3-(trifluoromethyl)phenyl)thiophene-3-carboxamide] | 43.8
30 | CCN(CC)C(C)Cc1nsc(NC(=O)c2csc(-c3cccc(C(F)(F)F)c3)c2)n1 [Compound D-7, N-(3-(2-(diethylamino)propyl)-1,2,4-thiadiazol-5-yl)-5-(3-(trifluoromethyl)phenyl)thiophene-3-carboxamide] | 23.2
